Measured values: publication PMC8333425, “Discovery of a dual Ras and ARF6 inhibitor from a GPCR endocytosis screen” (Nature Communications, 2021)
“And” between values parts separate entries of the source, which are not always exact repeats. Identical values can stand only once.

Tests used:
Format in all cases: cell-based, human
ERK1/2 activation by V2R = assay: Western blot of V2R-mediated ERK1/2 activation (rebuttal Figure 1); details: Barbadin 100 µM
BRAF = assay: Western blot of ERK1/2 phosphorylation induced by BRAF (BRAF-WT / BRAF-V600E)
Description: (§1) HEK293SL cells (10^5 cells per well) were seeded in a poly-L-lysine-coated six-well plate and transiently transfected with 3 μg Flag-AT1R, HA-B2R or HA-β2AR and/or 500 ng Flag-MEK1-WT, Flag-MEK1-DD, Flag-BRAF-WT, Flag-BRAF-V600E, Flag-K-Ras-WT, Flag-K-Ras-G12V, HA-ARF6-WT, or HA-ARF6-T27N. Gαq/11 KO and βarr1/2 KO cells were seeded onto 100 mm dishes at a density of 10^6 cells per dish. Next day, cells were transfected with 3 μg AT1R alone or along with 500 ng of β-arrestin2 using PEI. After 18 h of transfection, cells were detached and re-seeded onto poly-L-lysine coated 12-well plates (~1.5–2 × 10^5cells/well) for subsequent experiments. Forty-eight hours post transfection, in a 37 °C water bath, cells were serum-starved for 30 min, pretreated with DMSO (0.1%) or compound 21/Rasarfin (50 µM or at indicated concentrations) for 30 min, then stimulated or not with the indicated ligand [AngII (1 µM), BK (1 µM), Iso (10 µM) or EGF (100 ng/ml)] at indicated times. Cells were put on ice, washed with PBS and solubilized in 2x laemmli buffer (250 mM Tris–HCl pH 6.8, 2% SDS (w/v), 10% glycerol (v/v), 0.01% bromophenol blue (w/v) and 5% β-mercaptoethanol (v/v)) by heating at 65 °C for 15 min. Lysates were resolved on 10 or 14% SDS-PAGE, transferred to nitrocellulose membranes and immunoblotted for p-ERK1/2, ERK1/2, p-Akt, Akt, HA, Myc, β-actin or FLAG. ImageLab 5.2 software was used to quantify the digital blots as fold of the phosphorylated protein over total protein, which were then normalized as indicated in the figure legends. Uncropped immunoblots are provided in the Source Data file.

[1] = test system: ERK1/2 activation by EGFR; assay: Western blot of EGFR-mediated ERK1/2 phosphorylation; details: for p-ERK1/2 over ERK1/2, normalized to basal (0 min), EGFR: Comp 21 50 μM; for p-ERK1/2 over ERK1/2, normalized to basal (0 min), EGFR / ERK 1/2 activation, EGFR (p-ERK1/2 over ERK1/2, fold over basal): individual experiments
Description: as §1

B2R = assay: Endosomal BRET assay of agonist-mediated B2R internalization (B2R-RlucII / Endo-rGFP)
Excerpt: We performed a HT campaign in HEK293 cells using the bystander endosomal BRET sensor, which consists of a Renilla luciferase (RlucII)-tagged AT1R and an acceptor renilla GFP (rGFP) anchored to endosomes through an Endofin-FYVE (Endo-rGFP) domain[12]. AngII-mediated trafficking of AT1R to endosomes was screened against commercial libraries of ~115,000 small molecules (Fig. 1a and Supplementary Data 1). Because our assay is based on luminescence and fluorescence, we excluded 6610 compounds that quenched more than 50% of the luciferase or GFP signals. After excluding 5 AT1R antagonists, we conserved hit compounds blocking by more than 40%, as well as those potentiating by more than 100% receptor internalization. From this collection of 943 compounds, a second validation on AT1R internalization was performed using the same BRET assay, as well as on the agonist-mediated B2R internalization, this time using B2R-RlucII and Endo-rGFP. Only compounds that were revalidated on AT1R and affected B2R endocytosis were kept, which included forty hits (20 potentiators and 20 inhibitors) (Fig. 1b and Supplementary Data 2). We focused on inhibitors that were commercially available at the beginning of the project and tested their cell toxicity by microscopy, looking at cells expressing B2R tagged with YFP, which highlights cell contours and potential morphological changes, such as rounding up of cells following treatment with 50 μM of the compounds that may have indicated cell death. None of the inhibitors tested caused abnormal cell morphological changes when cells were treated with compounds as compared to DMSO-treated cells. Inhibitors were also assessed in terms of structure novelty, derivatization potential, and commercial availability of analogs (within 95–98% similarity from Tanimoto metric, Sci-Finder, https://scifinder-n.cas.org), for structure-activity relationship studies (SAR). They were scored 1–5, from best to worst. We excluded compounds with potential nucleophilic reactivity (e.g., Michael addition: compounds 7, 26, and 27), those reported to have biological activities (compounds 8, 20, 25, 30, and 35) and/or showing autofluorescence (compound 26). Compound 19 ranked high, but only had one other molecule with a similar structure available. Although other molecules could be interesting in their own rights as endocytosis inhibitors (e.g., compounds 1, 9, 11, 12, 13, 24, 31, and 37), we focused on compound 21 (Fig. 1c) because not only did it rank high in our analysis, but it was also the only compound with substantially more similar analogs commercially available at the time of these investigations. In the screen and the follow-up validation assay, 21 inhibited more than 50% AT1R internalization and more than 65% B2R internalization (Supplementary Data 2). […] Because β-arrestins are critically involved in GPCR endocytosis and trafficking in cells, we assessed 21’s effects on β-arrestins’ recruitment to AT1R and B2R at the PM using a BRET assay, as well as their trafficking into endosomes by microscopy.
HEK293SL cells were seeded at a density of 7.5 × 10^5 cells per 100-mm dish and 24 h later, transiently transfected as such. For receptor internalization experiments, cells were transfected with 0.12 μg AT1R-RlucII, B2R-RlucII, or β2AR-RlucII and 0.48 μg of either rGFP-CAAX (to assess removal from the PM) or rGFP-FYVE (to assess accumulation in the endosomes). For β-arrestin recruitment assays, cells were transfected with 0.48 μg of receptor-YFP along with 0.12 μg of β-arrestin-RlucII. For β-arrestin/AP-2 binding experiments, cells were transfected with 1 μg Flag-AT1R, 1 μg β2-Adaptin-YFP, and 0.12 μg β-arrestin2-RlucII. For G protein activation, cells were transfected with 3 μg of sp-Flag-AT1R along with either 4.5 μg of the Gαq-polycistronic BRET sensor or 0.24 μg of the Gαi3-RlucII and 0.6 μg of GFP10-Gγ2 and Gβ1 sensors or 0.12 μg PKN-RBD-RlucII and 0.48 μg of rGFP-CAAX. […]

**Q.** With `Nn1cnc2scc(-c3ccc(Cc4ccccc4)cc3)c2c1=O` [Barbadin, reference compound] as the compound, how does the “V2R-mediated ERK1/2 phosphorylation in HEK293 cells” value (ERK1/2 activation by V2R) read?
**A.** potent inhibition

**Q.** How did the “ERK1/2 activation induced by overexpression of BRAF-V600E” value (BRAF; 50 μM) turn out when `CC(C)C(=O)N1CCN(c2ccc(NC(=O)c3cc4ccccc4o3)cc2Cl)CC1` [Compound 21] was run?
**A.** nor did it block ERK1/2 activation

**Q.** What about the “ERK1/2 phosphorylation relative to mock (S_Fig.4d)” value (BRAF; Flag-BRAF-V600E, listed as Comp 21) of the same compound?
**A.** 3.464 and 4.631 and 3.5221 and 2.836

**Q.** And the “ERK1/2 phosphorylation relative to mock (S_Fig.4d)” value (BRAF; Flag-BRAF-WT, listed as Comp 21)?
**A.** 1 and 1.273 and 1.416

**Q.** What about the “ERK1/2 phosphorylation relative to mock (S_Fig.4d)” value (BRAF; mock) of the same compound?
**A.** 1

**Q.** And the “MAPK response promoted by EGFR” value ([1]; 50 μM)?
**A.** blocked MAPK responses

**Q.** And the “p-ERK1/2 over ERK1/2, normalized to basal (0 min), EGFR” value (from here on “p-ERK1/2 over ERK1/2, normalized”) ([1]; time 0 min)?
**A.** 1

**Q.** What about the “p-ERK1/2 over ERK1/2, normalized” value ([1]; time 2 min) of the same compound?
**A.** 0.3674 and 5.171 and 13.8891 and 0.7219

**Q.** What about the “p-ERK1/2 over ERK1/2, normalized” value ([1]; time 5 min) of the same compound?
**A.** 0.3034 and 7.285 and 51.2032 and 0.6227

**Q.** What about the IC50 ([1]; Homo sapiens, read-out: IC50 for inhibition of ERK1/2 activation by EGFR) of the same compound?
**A.** 4 µM

**Q.** And the “ERK 1/2 activation, EGFR (p-ERK1/2 over ERK1/2, fold over basal)” value ([1]; Log [Comp 21] (M) -4.3)?
**A.** 3.411 percent compared to DMSO and 1.173 percent compared to DMSO

**Q.** What about the “ERK 1/2 activation, EGFR (p-ERK1/2 over ERK1/2, fold over basal)” value ([1]; Log [Comp 21] (M) -5) of the same compound?
**A.** 5.269 percent compared to DMSO and 7.4638 percent compared to DMSO and 1.3341 percent compared to DMSO

**Q.** What about the “ERK 1/2 activation, EGFR (p-ERK1/2 over ERK1/2, fold over basal)” value ([1]; Log [Comp 21] (M) -5.3) of the same compound?
**A.** 22.8883 percent compared to DMSO and 78.7892 percent compared to DMSO and 45.9513 percent compared to DMSO

**Q.** What about the “ERK 1/2 activation, EGFR (p-ERK1/2 over ERK1/2, fold over basal)” value ([1]; Log [Comp 21] (M) -6) of the same compound?
**A.** 104.782 percent compared to DMSO and 74.7611 percent compared to DMSO

**Q.** What about the “ERK 1/2 activation, EGFR (p-ERK1/2 over ERK1/2, fold over basal)” value ([1]; Log [Comp 21] (M) -6.3) of the same compound?
**A.** 80.4826 percent compared to DMSO and 84.8524 percent compared to DMSO

**Q.** What about the “ERK 1/2 activation, EGFR (p-ERK1/2 over ERK1/2, fold over basal)” value ([1]; Log [Comp 21] (M) -7) of the same compound?
**A.** 108.069 percent compared to DMSO and 86.5762 percent compared to DMSO

**Q.** What about the IC50 (B2R; Homo sapiens, BK, into endosomes, read-out: IC50 for inhibition of B2R internalization) of the same compound?
**A.** 11 µM

**Q.** And the “B2R internalization into endosomes, ligand-promoted BRET (Mean)” value (shortened to “B2R internalization into endosomes”) (B2R; Log [Comp21] (M) -4.3)?
**A.** 20.7288 percent compared to DMSO

**Q.** And the “B2R internalization into endosomes” value (B2R; Log [Comp21] (M) -4.6)?
**A.** 30.2526 percent compared to DMSO

**Q.** What about the “B2R internalization into endosomes” value (B2R; Log [Comp21] (M) -5) of the same compound?
**A.** 61.9767 percent compared to DMSO

**Q.** What about the “B2R internalization into endosomes” value (B2R; Log [Comp21] (M) -5.3) of the same compound?
**A.** 83.8073 percent compared to DMSO

**Q.** And the “B2R internalization into endosomes” value (B2R; Log [Comp 21] (M) -6)?
**A.** 104.977 percent compared to DMSO

**Q.** What about the “B2R internalization into endosomes” value (B2R; Log [Comp21] (M) -6.3) of the same compound?
**A.** 107.04 percent compared to DMSO

**Q.** And the “B2R internalization into endosomes” value (B2R; Log [Comp 21] (M) -7)?
**A.** 102.555 percent compared to DMSO

**Q.** What about the “inhibition of B2R internalization” value (B2R; follow-up validation assay) of the same compound?
**A.** more than 65%

**Q.** And the “B2R Inhibition (%DMSO)” value (B2R; one experiment, negative = potentiation)?
**A.** 66.5725 %DMSO
